Legend:
human TRPV3 = target: T1, human TRPV3 (Homo sapiens, UniProt Q8NET8); assay: In vitro antagonism of recombinant human TRPV3 activation (FLIPR Tetra calcium assay, 2-APB as agonist); type: cell-based; conditions: HEK293 cells stably expressing human TRPV3; 2-APB 80 μM; range class; read-out: IC50 (reported range)
T1 construct: expressed in transfected cells
T1 sequence (Q8NET8 1-790): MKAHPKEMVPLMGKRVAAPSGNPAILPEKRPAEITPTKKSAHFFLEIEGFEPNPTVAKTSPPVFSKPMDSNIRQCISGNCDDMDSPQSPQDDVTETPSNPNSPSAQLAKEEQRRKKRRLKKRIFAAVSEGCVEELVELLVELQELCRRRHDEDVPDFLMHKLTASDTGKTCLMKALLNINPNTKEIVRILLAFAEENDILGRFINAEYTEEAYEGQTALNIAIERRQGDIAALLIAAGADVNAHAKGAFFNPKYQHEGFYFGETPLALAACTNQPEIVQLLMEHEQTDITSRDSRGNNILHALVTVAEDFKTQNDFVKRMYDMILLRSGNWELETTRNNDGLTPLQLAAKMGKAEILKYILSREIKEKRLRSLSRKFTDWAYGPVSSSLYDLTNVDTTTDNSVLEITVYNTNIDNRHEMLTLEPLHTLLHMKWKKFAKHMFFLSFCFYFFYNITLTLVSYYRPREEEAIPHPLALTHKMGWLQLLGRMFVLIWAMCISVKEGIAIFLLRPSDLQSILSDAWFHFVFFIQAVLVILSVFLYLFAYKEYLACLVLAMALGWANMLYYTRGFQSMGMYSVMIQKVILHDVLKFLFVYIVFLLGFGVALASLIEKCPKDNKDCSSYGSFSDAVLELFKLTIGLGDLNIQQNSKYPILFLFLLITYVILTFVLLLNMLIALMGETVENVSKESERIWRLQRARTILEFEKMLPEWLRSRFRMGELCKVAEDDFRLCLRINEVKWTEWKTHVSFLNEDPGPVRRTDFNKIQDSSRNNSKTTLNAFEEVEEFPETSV
In short: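 Readout is FLIPR fluorescence, max minus min as percent of uninhibited 2-APB response, giving IC50 (usually mean of ≥2 runs). Stable human TRPV3 HEK293 cells, Calcium-4 dye-loaded, got test compound then, three minutes later, 80 μM 2-APB (EC80); run length 10 min.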

[1] = In vitro human microsomal stability assay; type: in vitro ADME; conditions: human, 0.5 h, 0.5 μM, pH 7.4
In short: (§1)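 Metabolic stability is assessed by incubating test compound with liver microsomes at 37 °C in the presence of NADPH. Rat assays use Sprague-Dawley microsomes, while human assays use human microsomes.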

[2] = In vitro rat microsomal stability assay; type: in vitro ADME, rat (Sprague-Dawley); conditions: Sprague-Dawley, rat, 0.5 h, 0.5 μM, pH 7.4
In short: as §1

Row | IC50 (human TRPV3) [nM] | HUMAN MICROSOMAL STABILITY (% REMAINING AFTER 30 MINUTES) [1] [%] | RAT MICROSOMAL STABILITY (% REMAINING AFTER 30 MINUTES) [2] [%] | SMILES
1 | 1100 to 5000 | 83 | 56 | N[C@@H]1CCC[C@@H]1[C@@H](O)C1(c2ccc(OC(F)(F)F)cc2)CCC1 [Example 221, (R)-[(1S,2R)-2-aminocyclopentyl]{1-[4-(trifluoromethoxy)phenyl]-cyclobutyl}methanol]
2 | 1100 to 5000 | >85 | 59 | N[C@H]1CCC[C@@H]1[C@H](O)C1(c2ccc(OC(F)(F)F)cc2)CCC1 [Example 222, (S)-[(1S,2S)-2-aminocyclopentyl]{1-[4-(trifluoromethoxy)phenyl]-cyclobutyl}methanol]
3 | 50 to 500 | 24 | 11 | OC(c1ccccn1)C1(c2ccc(OC(F)(F)F)cc2)CCC1 (stereo not drawn) [Example 12, pyridin-2-yl{1-[4-(trifluoromethoxy)phenyl]cyclobutyl}methanol]
4 | 501 to 1000 | 37 | 25 | OC(c1ccccn1)C1(c2cc(C(F)(F)F)ccn2)CCC1 (stereo not drawn) [Example 116, pyridin-2-yl{1-[4-(trifluoromethyl)pyridin-2-yl]cyclobutyl}methanol]
5 | 501 to 1000 | >85 | >85 | OC1CC(c2cc(C(F)(F)F)ccn2)(C(O)c2ccccn2)C1 [Example 282, cis-3-[(S)-hydroxy(pyridin-2-yl)methyl]-3-[4-(trifluoromethyl)pyridin-2-yl]-cyclobutanol]
6 | 501 to 1000 | 26 | 2.9 | OC(c1ccccn1)C1(c2cccc(F)c2)CCCO1 (stereo not drawn) [Example 100, (anti)-[2-(3-fluorophenyl)tetrahydrofuran-2-yl](pyridin-2-yl)methanol]
7 | 1100 to 5000 | 31 | 0.23 | OC(c1ccccn1)C1(c2cccc(C(F)(F)F)c2)CCCO1 (stereo not drawn) [Example 107, (syn)-pyridin-2-yl{2-[3-(trifluoromethyl)phenyl]tetrahydrofuran-2-yl}-methanol]
8 | 1100 to 5000 | 7.1 | 21 | O[C@H](c1ccccn1)C1(c2cccc(C(F)(F)F)n2)CCC1 [Example 238, (S)-pyridin-2-yl{1-[6-(trifluoromethyl)pyridin-2-yl]cyclobutyl}methanol]
9 | 50 to 500 | 55 | 3.8 | OC(c1ccccn1)C1(c2ccc(OC(F)(F)F)cc2)CCCO1 (stereo not drawn) [Example 94, (anti)-pyridin-2-yl{2-[4-(trifluoromethoxy)phenyl]tetrahydrofuran-2-yl}-methanol]
10 | 50 to 500 | 54 | 48 | OC1CC(c2cccc(OC(F)(F)F)c2)(C(O)c2ccccn2)C1 [Example 272, cis-3-[(S)-hydroxy(pyridin-2-yl)methyl]-3-[3-(trifluoromethoxy)phenyl]-cyclobutanol]
11 | 50 to 500 | >85 | 42 | N[C@@H]1CCC[C@H]1[C@@H](O)C1(c2cccc(C(F)(F)F)c2)CCC1 [Example 227, (R)-[(1R,2R)-2-aminocyclopentyl]{1-[3-(trifluoromethyl)phenyl]-cyclobutyl}methanol]
12 | 501 to 1000 | 19 | 5.4 | OC(c1ccccn1)C1(c2nc3ccc(Cl)cc3s2)CCC1 (stereo not drawn) [Example 292, [1-(6-chloro-1,3-benzothiazol-2-yl)cyclobutyl](pyridin-2-yl)methanol]

More lines, now with the values behind:

Row | SMILES | IC50 (human TRPV3) [nM] | HUMAN MICROSOMAL STABILITY (% REMAINING AFTER 30 MINUTES) [1] [%] | RAT MICROSOMAL STABILITY (% REMAINING AFTER 30 MINUTES) [2] [%]
13 | OC(c1ccccn1)C1(c2ccccc2OC(F)(F)F)CCCO1 (stereo not drawn) [Example 97, (syn)-pyridin-2-yl{2-[2-(trifluoromethoxy)phenyl]tetrahydrofuran-2-yl}-methanol] | 50 to 500 | 6.4 | 0.16
14 | OC(c1ccccn1)C1(c2cccc(Cl)c2)CCCO1 (stereo not drawn) [Example 104, (anti)-[2-(3-chlorophenyl)tetrahydrofuran-2-yl](pyridin-2-yl)methanol] | 50 to 500 | 15 | 0.42
15 | Cc1cccc(C2(C(O)c3ccccn3)CCC2)c1 (stereo not drawn) [Example 8, [1-(3-methylphenyl)cyclobutyl](pyridin-2-yl)methanol] | 50 to 500 | 0.13 | 0.73
16 | NC1CCCC1C(O)C1(c2cccc(C(F)(F)F)c2)CCC1 (stereo not drawn) [Example 204, (2-aminocyclopentyl){1-[3-(trifluoromethyl)phenyl]cyclobutyl}methanol] | 1100 to 5000 | >85 | >85
17 | N[C@H]1CCC[C@H]1[C@H](O)C1(c2ccc(Cl)c(Cl)c2)CCC1 [Example 217, (S)-[(1R,2S)-2-aminocyclopentyl][1-(3,4-dichlorophenyl)cyclobutyl]-methanol] | 1100 to 5000 | 73 | 68
18 | OC(c1ccccn1)C1(C2CCC(C(F)(F)F)CC2)CCC1 (stereo not drawn) [Example 280, pyridin-2-yl{1-[4-(trifluoromethyl)cyclohexyl]cyclobutyl}methanol] | 1100 to 5000 | 9.0 | <0.01
19 | OC(c1ccccn1)C1(c2cccc(OC(F)(F)F)c2)CC(F)(F)C1 (stereo not drawn) [Example 114, {3,3-difluoro-1-[3-(trifluoromethoxy)phenyl]cyclobutyl}(pyridin-2-yl)-methanol] | 50 to 500 | 6.9 | 11
20 | OC(c1ccccn1)C1(C2CCc3ccccc32)CCC1 (stereo not drawn) [Example 55, [1-(2,3-dihydro-1H-inden-1-yl)cyclobutyl](pyridin-2-yl)methanol] | 5100 to 20000 | 1.6 | 0.29
21 | O[C@@H](c1ncccn1)C1(c2ccc(Cl)c(Cl)c2)CCC1 [Example 40, (R)-[1-(3,4-dichlorophenyl)cyclobutyl](pyrimidin-2-yl)methanol] | 5100 to 20000 | 68 | 5.6
22 | OC(c1ccccn1)C1(c2ccccc2F)CCC1 (stereo not drawn) [Example 1, [1-(2-fluorophenyl)cyclobutyl](pyridin-2-yl)methanol] | 1100 to 5000 | 0.38 | 0.48
23 | OC(c1ccccn1)C1(c2ccccc2C(F)(F)F)CCC1 (stereo not drawn) [Example 5, pyridin-2-yl{1-[2-(trifluoromethyl)phenyl]cyclobutyl}methanol] | 5100 to 20000 | 0.27 | 0.06
24 | OC(c1ccccn1)C1(c2ccc(OC(F)(F)F)cc2)CC(F)(F)C1 (stereo not drawn) [Example 112, {3,3-difluoro-1-[4-(trifluoromethoxy)phenyl]cyclobutyl}(pyridin-2-yl)-methanol] | 50 to 500 | 75 | 75
25 | OC(c1ccccn1)C1(c2ccc(C(F)(F)F)cn2)CC(F)(F)C1 (stereo not drawn) [Example 137, {3,3-difluoro-1-[5-(trifluoromethyl)pyridin-2-yl]cyclobutyl}(pyridin-2-yl)-methanol] | 1100 to 5000 | 77 | >85
